These results are taken from patent US5698565A, “Use of phenoxy-pyridine derivatives” (Hoffmann-La Roche Inc., priority 1995, dated 1997).

For this assay, the target named is T1, dopamine-D4 receptor (Homo sapiens, UniProt P21917).
T1 construct: expressed in transfected cells; host or cells: CHO (Chinese Hamster Ovary) cells, D4-CHO; crude membranes
Briefly: [3H]-spiperone binding at the D4 receptor, membranes of D4-CHO cells. Conditions: crude membranes from D4-CHO cells, 200 pM [3H]-spiperone, room temperature, 90 minutes. The method, then: Compounds of formula I were characterized by their binding behavior at the D4 receptor.
CHO cells (Chinese Hamster Ovary) were used in the test. Crude membranes were isolated by ultracentrifugation from D4 -CHO and D2 -CHO cells and were stored at -80° C. After thawing and homogenizing in a buffer solution (50 mM Tris, 1 mM EDTA, 5 mM KCl, 1.5 mM CaCl2, 4 mM MgCl2, pH 7.4) they were incubated at room temperature for 90 minutes with 200 pM [3H]-spiperone and an increasing concentration (1×10^-11 M to 1×10^-4 M) of test compound. A non-specific binding was established by incubating in the presence of 1×10^-5 M (+)-butaclamol. The unbound radioligand was removed by filtration through a GF/C glass filter and the bound radioactivity was determined by scintillation in a Packard TopCount.
The calculation of the value was effected with ligand.

T1 sequence (P21917 whole entry): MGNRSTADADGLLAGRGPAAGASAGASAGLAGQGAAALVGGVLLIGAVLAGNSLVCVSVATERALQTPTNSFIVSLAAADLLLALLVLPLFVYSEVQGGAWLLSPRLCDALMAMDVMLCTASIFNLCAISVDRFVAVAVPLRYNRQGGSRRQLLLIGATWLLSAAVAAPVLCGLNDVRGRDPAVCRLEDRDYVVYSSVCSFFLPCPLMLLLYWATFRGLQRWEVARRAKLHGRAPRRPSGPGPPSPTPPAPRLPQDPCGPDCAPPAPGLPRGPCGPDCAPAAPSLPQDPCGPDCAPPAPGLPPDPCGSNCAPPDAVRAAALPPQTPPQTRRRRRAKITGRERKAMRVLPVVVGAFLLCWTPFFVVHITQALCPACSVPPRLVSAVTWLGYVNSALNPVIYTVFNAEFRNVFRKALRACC

The Ki is a dissociation constant, usually derived from enzyme kinetics or from competition with a known ligand. Higher therefore signals weaker binding. Consider `Cc1ccc(OCC(O)CN2CC=C(c3ccccc3)CC2)cc1C` (centres unmarked) [Compound 8, 1-(3,4-Dimethyl-phenoxy)-3-(4-phenyl-3,6-dihydro-2H-pyridin-1-yl)-propan-2-ol], for which the inhibition constant Ki was < 100 nM. To `Cc1ccccc1OCC(O)CN1CC=C(c2ccccc2)CC1` (centres unmarked) [Compound 2, 1-(4-Phenyl-3,6-dihydro-2H-pyridin-1-yl)-3-o-tolyloxy-propan-2-ol] belongs < 100 nM; to `NC(=O)c1ccccc1OCC(O)CN1CC=C(c2ccc(F)cc2)CC1` (centres unmarked) [Compound 12, 2-[3-[4-(4-Fluoro-phenyl)-3,6-dihydro-2H-pyridinol-yl]-2-hydroxy-propoxy]-benzamide], < 100 nM; to `OC(COc1cccc(C(F)(F)F)c1)CN1CC=C(c2ccccc2)CC1` (centres unmarked) [Compound 3, 1-(4-Phenyl-3,6-dihydro-2H-pyridin-1-yl)-3-(3-trifluoro-methylphenoxy)-propan-2-ol], < 100 nM.

Take `CC(=O)Nc1ccccc1OCC(O)CN1CC=C(c2ccc(Cl)cc2)CC1` (centres unmarked) [Compound 14]: the Ki was < 100 nM. To `Cc1cccc(OCC(O)CN2CC=C(c3ccccc3)CC2)c1` (centres unmarked) [Compound 1, 1-(4-Phenyl-3,6-dihydro-2H-pyridin-1-yl)-3-m-tolyloxy-5-propan-2-ol] belongs < 100 nM; to `OC(COc1cccc(C(F)(F)F)c1)CN1CC=C(c2ccc(F)cc2)CC1` (centres unmarked) [Compound 11, 1-[4-(4-Fluoro-phenyl)-3,6-dihydro-2H-pyridin-1-yl)-3-(3-trifluoromethyl-phenoxy)-propan-2-ol], < 100 nM. Regarding `CC(=O)Nc1cc(Cl)ccc1OCC(O)CN1CC=C(c2ccccc2)CC1` (centres unmarked) [Compound 9, N-[5-Chloro-2-[2-hydroxy-3-(4-phenyl-3,6-dihydro-2H-pyridin-1-yl)-propoxy]-phenyl]acetamide], the Ki is < 100 nM. Consider `CC(=O)c1ccccc1OCC(O)CN1CC=C(c2ccccc2)CC1` (centres unmarked) [Compound 7, 1-[2-[2-Hydroxy-3-(4-phenyl-3,6-dihydro-2H-pyridin-1-yl)-propoxy]-phenyl]-ethanone], for which the inhibition constant Ki is < 100 nM.

Turning to `OC(COc1cccc2ccccc12)CN1CC=C(c2ccccc2)CC1` (centres unmarked) [Compound 10, 1-(Naphthalen-1-yloxy)-3-(4-phenyl-3,6-dihydro-2H-pyridin-1-yl)-propan-2-ol], the Ki is < 100 nM. For `COc1ccccc1OCC(O)CN1CC=C(c2ccccc2)CC1` (centres unmarked) [Compound 5, 1-(2-Methoxy-phenoxy)-3-(4-phenyl-3,6-dihydro-2H-pyridin-1-yl)-propan-2-ol], the inhibitory constant (Ki) is < 100 nM. To `NC(=O)Nc1ccccc1OCC(O)CN1CC=C(c2ccc(F)cc2)CC1` (centres unmarked) [Compound 13, [2-[3-[4-(4-Fluoro-phenyl)-3,6-dihydro-2H-pyridin-1-yl]-2-hydroxy-propoxy]-phenyl]-urea] belongs < 100 nM; to `CC(=O)Nc1ccccc1OCC(O)CN1CC=C(c2ccccc2)CC1` (centres unmarked) [Compound 6, N-[2-[2-Hydroxy-3-(4-phenyl-3,6-dihydro-2H-pyridin-1-yl)-propoxy]-phenyl]-acetamide], < 100 nM; to `OCc1ccccc1OCC(O)CN1CC=C(c2ccccc2)CC1` (centres unmarked) [Compound 4, 1-(2-Hydroxymethyl-phenoxy)-3-(4-phenyl-3,6-dihydro-2H-pyridin-1-yl)-propan-2-ol], < 100 nM.
